Like-named read-outs stand apart in the source and are kept apart here.

Common to all, as to experiment: 3H-TdR (3H-thymidine) incorporation assay at 72 hr
One experiment relates to SF-268. It is filed as cell-based, Human. The settings on record: Homo sapiens.
Another experiment relates to CCRF-CEM. It is filed as cell-based. The settings on record: Homo sapiens, CCRF-CEM. The protocol: (§1) Table of IC50 Values (μM) for Controls
(§2) Exposition of 24 hr to drug, wash, incubated for another 48 hr (total of 72 hr assay)
(§3) (3H-Thymidine Incorporation Assay)

The next experiment concerns CEM/dCK-. It is filed as cell-based. The settings on record: for IC50: Homo sapiens, CCRF-CEM; for Factor* (Resistance Factor = Ratio of dCK- on Wild-type CCRF-CEM): ratio of IC50 CEM/dCK- to CCRF-CEM, 24 h. The protocol: as §1, §2, §3
The next experiment concerns MCF-7. The class given is cell-based, Human. The settings on record: Homo sapiens.
The next experiment has as its system H-460. The class given is cell-based, Human. The settings on record: Homo sapiens.
The mark [1] stands for this setting: SF-268, read-out: IC50 SF-268 24 h, 24 h drug exposure, wash, another 48 hr, 3H-TdR incorporation at 72 hr.
Setting [2] is: read-out: IC50 CCRF-CEM 24 h, 24 h drug exposure, wash, another 48 hr, 3H-TdR incorporation at 72 hr.
Where [3] appears, read: read-out: IC50 CEM/dCK- 24 h, 24 h drug exposure, wash, another 48 hr, deoxycytidine kinase-deficient CCRF-CEM.
Where [4] appears, read: MCF7, read-out: IC50 MCF-7 24 h, 24 h drug exposure, wash, another 48 hr, 3H-TdR incorporation at 72 hr.
Where [5] appears, read: NCI-H460, read-out: IC50 H-460 24 h, 24 h drug exposure, wash, another 48 hr, 3H-TdR incorporation at 72 hr.
[6] abbreviates: SF-268, read-out: IC50 SF-268 24 h.
The mark [7] stands for this setting: MCF7, read-out: IC50 MCF-7 24 h.
Setting [8] is: NCI-H460, read-out: IC50 H-460 24 h.

Turning to `Nc1ccn([C@@H]2CO[C@H](COC3OCCO3)O2)c(=O)n1` [Compound 40, 4-AMINO-1-[2- ([1,3]DIOXOLAN-2- YLOXYMETHYL)- [1,3]DIOXOLAN-4-YL]-1H- PYRIMIDIN-2-ONE], the IC50 in the experiment with SF-268 (setting [1]) was 900 nM; in the experiment with CCRF-CEM (setting [2]) it was 89 nM; in the experiment with CEM/dCK- (setting [3]), over 100000 nM; in the experiment with MCF-7 (setting [4]), 70 nM; with H-460 (setting [5]) it was 320 nM. Moreover, in the experiment with CEM/dCK-, the “Factor* (Resistance Factor = Ratio of dCK- on Wild-type CCRF-CEM)” value is 1,123.

On to `O=C(Nc1ccn([C@@H]2CO[C@H](COC(=O)Oc3ccccc3)O2)c(=O)n1)Oc1ccccc1` [Compound 43], for which the IC50 in the experiment with SF-268 (setting [6]) is 29 nM; with CCRF-CEM (read-out: IC50 CCRF-CEM 24 h), under 0.1 nM; in the experiment with CEM/dCK- (read-out: IC50 CEM/dCK- 24 h), over 100000 nM; in the experiment with MCF-7 (setting [7]), 4.1 nM; in the experiment on H-460 (setting [8]) it was 10 nM. Also, the “Factor* (Resistance Factor = Ratio of dCK- on Wild-type CCRF-CEM)” value in the experiment with CEM/dCK- is 1,000,000.

`O=C(Nc1ccn([C@@H]2CO[C@H](CO)O2)c(=O)n1)Oc1ccccc1` [Compound 44, [1-(2-HYDROXYMETHYL- [1,3]DIOXOLAN-4-YL)-2- OXO-1,2-DIHYDRO- […]-4-YL]- CARBAMIC ACID PHENYL ESTER]: the IC50 in the experiment on SF-268 (setting [6]) is 890 nM; in the experiment with CCRF-CEM (read-out: IC50 CCRF-CEM 24 h), 77 nM; in the experiment with CEM/dCK- (read-out: IC50 CEM/dCK- 24 h), over 100000 nM; in the experiment on MCF-7 (setting [7]), 970 nM; in the experiment with H-460 (setting [8]), 370 nM. The “Factor* (Resistance Factor = Ratio of dCK- on Wild-type CCRF-CEM)” value with CEM/dCK- is reported as 1,300.

In the case of `CCOC(=O)Nc1ccn([C@@H]2CO[C@H](CO)O2)c(=O)n1` [Compound 45, [1-(2-HYDROXYMETHYL- [1,3]DIOXOLAN-4-YL)-2- OXO-1,2-DIHYDRO- PYRIMIDIN-4-YL]- CARBAMIC ACID ETHYL ESTER], the IC50 is 9000 nM in the experiment on SF-268 (setting [1]); 1600 nM with CCRF-CEM (setting [2]); over 100000 nM in the experiment with CEM/dCK- (setting [3]); 2700 nM in the experiment on MCF-7 (setting [4]); 3200 nM with H-460 (setting [5]). For the same molecule, the “Factor* (Resistance Factor = Ratio of dCK- on Wild-type CCRF-CEM)” value with CEM/dCK- came out at 63.

In the case of `CCOC(=O)OC[C@H]1OC[C@@H](n2ccc(N)nc2=O)O1` [Compound 46, CARBONIC ACID 4-(4- AMINO-2-OXO-2H- PYRIMIDIN-1-YL)- [1,3]DIOXOLAN-2- YLMETHYL ESTER ETHYL ESTER], the IC50 is 560 nM in the experiment on SF-268 (setting [1]); 60 nM with CCRF-CEM (setting [2]); over 100000 nM with CEM/dCK- (setting [3]); 160 nM in the experiment on MCF-7 (setting [4]); 86 nM with H-460 (setting [5]). The “Factor* (Resistance Factor = Ratio of dCK- on Wild-type CCRF-CEM)” value with CEM/dCK- is reported as 1,667.

For `CCOC(=O)Nc1ccn([C@@H]2CO[C@H](COC(=O)OCC)O2)c(=O)n1` [Compound 47, CARBONIC ACID 4-(4- ETHOXYCARBONYLAMINO-2- OXO-2H-PYRIMIDIN-1-YL)- [1,3]DIOXOLAN-2- YLMETHYL ESTER ETHYL ESTER], the IC50 in the experiment with SF-268 (setting [1]) is 38000 nM; in the experiment with CCRF-CEM (setting [2]) it was 2900 nM; in the experiment with CEM/dCK- (setting [3]), over 100000 nM; in the experiment with MCF-7 (setting [4]), 2400 nM; in the experiment on H-460 (setting [5]), 1800 nM. In the experiment on CEM/dCK-, the “Factor* (Resistance Factor = Ratio of dCK- on Wild-type CCRF-CEM)” value is 34.

Consider `CC(C)(C)C(=O)Nc1ccn([C@@H]2CO[C@H](CO)O2)c(=O)n1` [Compound 49, N-[1-(2-HYDROXYMETHYL- [1,3]DIOXOLAN-4-YL)- CYTOSYL]-2,2-DIMETHYL- PROPIONAMIDE], for which the IC50 was 7100 nM in the experiment on SF-268 (setting [1]); 570 nM in the experiment on CCRF-CEM (setting [2]); over 100000 nM in the experiment with CEM/dCK- (setting [3]); 8800 nM in the experiment with MCF-7 (setting [4]); 4500 nM with H-460 (setting [5]). The “Factor* (Resistance Factor = Ratio of dCK- on Wild-type CCRF-CEM)” value in the experiment on CEM/dCK- worked out at 175.

In the case of `O=C(Nc1ccn([C@@H]2CO[C@H](CO)O2)c(=O)n1)OCc1ccccc1` [Compound 50, [1-(2-HYDROXYMETHYL- [1,3]DIOXOLAN-4-YL)- CYTOSYL]-CARBAMIC ACID BENZYL ESTER], the IC50 in the experiment on SF-268 (setting [1]) is 1300 nM; in the experiment on CCRF-CEM (setting [2]), 170 nM; in the experiment on CEM/dCK- (setting [3]), over 100000 nM; in the experiment with MCF-7 (setting [4]), 820 nM; with H-460 (setting [5]), 1200 nM. Further, the “Factor* (Resistance Factor = Ratio of dCK- on Wild-type CCRF-CEM)” value with CEM/dCK- is 588.

Take `O=C(Nc1ccn([C@@H]2CO[C@H](COC(=O)OCc3ccccc3)O2)c(=O)n1)OCc1ccccc1` [Compound 51, 4-(4- BENZYLOXYCARBONYLAMINOC YTOSYL)-[1,3]DIOXOLAN- 2-YLMETHYL BENZYL CARBONATE]: the IC50 in the experiment with SF-268 (setting [1]) is 860 nM; with CCRF-CEM (setting [2]) it was 24 nM; in the experiment with CEM/dCK- (setting [3]), 47000 nM; with MCF-7 (setting [4]), 570 nM; in the experiment with H-460 (setting [5]) it was 830 nM. Also, the “Factor* (Resistance Factor = Ratio of dCK- on Wild-type CCRF-CEM)” value in the experiment with CEM/dCK- was 1,958.

In the case of `Nc1ccn([C@@H]2CO[C@H](COC(=O)Cc3ccccc3)O2)c(=O)n1` [Compound 52, (2S,4S)-2- PHENYLACETOXYMETHYL-4- CYTOSIN-1′-YL-1,3- DIOXOLANE], the IC50 with SF-268 (setting [6]) amounted to 32 nM; with CCRF-CEM (read-out: IC50 CCRF-CEM 24 h), 1.2 nM; in the experiment on CEM/dCK- (read-out: IC50 CEM/dCK- 24 h) it was 480 nM; with MCF-7 (setting [7]), 88 nM; with H-460 (setting [8]), 6.8 nM. Further, the “Factor* (Resistance Factor = Ratio of dCK- on Wild-type CCRF-CEM)” value in the experiment on CEM/dCK- is reported as 400.

On to `COC(C)(C)OC[C@H]1OC[C@@H](n2ccc(N)nc2=O)O1` [Compound 54, 4-AMINO-1-[2-(1- METHOXY-1-METHYL- ETHOXYMETHYL)- [1,3]DIOXOLAN-4-YL]-1H- PYRIMIDIN-2-ONE], for which the IC50 was 700 nM in the experiment on SF-268 (setting [1]); 120 nM in the experiment on CCRF-CEM (setting [2]); 65000 nM in the experiment on CEM/dCK- (setting [3]); 500 nM in the experiment on MCF-7 (setting [4]); 170 nM in the experiment with H-460 (setting [5]). Besides, the “Factor* (Resistance Factor = Ratio of dCK- on Wild-type CCRF-CEM)” value in the experiment with CEM/dCK- is reported as 542.

`CCCCCCCC(=O)Nc1ccn([C@@H]2CO[C@H](CO)O2)c(=O)n1` [Compound 55, OCTANOIC ACID [1-(2- HYDROXYMETHYL- [1,3]DIOXOLAN-4-YL)-2- OXO-1, 2-DIHYDRO- PYRIMIDIN-4-YL]-AMIDE]: the IC50 in the experiment on SF-268 (setting [1]) is 47 nM; in the experiment on CCRF-CEM (setting [2]), 12 nM; in the experiment on CEM/dCK- (setting [3]) it was 64000 nM; in the experiment on MCF-7 (setting [4]) it was 7.8 nM; with H-460 (setting [5]), 29 nM. Besides, the “Factor* (Resistance Factor = Ratio of dCK- on Wild-type CCRF-CEM)” value in the experiment on CEM/dCK- is given as 5,333.

`CC(C)(C)C(=O)OCOC[C@H]1OC[C@@H](n2ccc(N)nc2=O)O1` [Compound 58, 2,2-DIMETHYL-PROPIONIC ACID 4-(4-AMINO-2-OXO- 2H-PYRIMIDIN-1-YL)- [1,3]DIOXOLAN-2- YLMETHOXYMETHYL ESTER]: the IC50 in the experiment on SF-268 (setting [1]) came out at 130 nM; in the experiment on CCRF-CEM (setting [2]) it was 14 nM; with CEM/dCK- (setting [3]) it was 38000 nM; with MCF-7 (setting [4]) it was 16 nM; with H-460 (setting [5]), 12 nM. Further, in the experiment with CEM/dCK-, the “Factor* (Resistance Factor = Ratio of dCK- on Wild-type CCRF-CEM)” value is given as 2,714.

For the molecule `CCCCOC(=O)Nc1ccn([C@@H]2CO[C@H](CO)O2)c(=O)n1` [Compound 59, [1-(2-HYDROXYMETHYL- [1,3]DIOXOLAN-4-YL)-2- OXO-1,2-DIHYDRO- PYRIMIDIN-4-YL]- CARBAMIC ACID BUTYL ESTER], the IC50 in the experiment on SF-268 (setting [1]) is 690 nM; in the experiment on CCRF-CEM (setting [2]), 540 nM; in the experiment on CEM/dCK- (setting [3]) it was over 100000 nM; in the experiment on MCF-7 (setting [4]), 190 nM; in the experiment on H-460 (setting [5]) it was 1400 nM. For the same molecule, in the experiment with CEM/dCK-, the “Factor* (Resistance Factor = Ratio of dCK- on Wild-type CCRF-CEM)” value is recorded as 185.

As for `COCCOCOC[C@H]1OC[C@@H](n2ccc(N)nc2=O)O1` [Compound 62, 4-AMINO-1-[2-(2- METHOXY- ETHOXYMETHOXYMETHYL)- [1,3]DIOXOLAN-4-YL]-1H- PYRIMIDIN-2-ONE], the IC50 in the experiment on SF-268 (setting [1]) was 4300 nM; in the experiment on CCRF-CEM (setting [2]), 350 nM; in the experiment on CEM/dCK- (setting [3]) it was over 100000 nM; with MCF-7 (setting [4]), 1700 nM; in the experiment with H-460 (setting [5]) it was 890 nM. Further, the “Factor* (Resistance Factor = Ratio of dCK- on Wild-type CCRF-CEM)” value in the experiment on CEM/dCK- is given as 288.

The values above are taken from patent US20030013660A1, “Dioxolane analogs for improved inter-cellular delivery” (Shire BioChem Inc., priority 2000, published 2003).
